Data on one compound can be found in patent publication US7012083B2, “Compounds useful in therapy” (Pfizer Inc., priority 1999, dated 2006).

The test system of this experiment is hind leg scratching behaviour induced by 5-methoxytryptamine hydrochloride. The experiment in a line: Inhibition of hind leg scratching behaviour induced in rats by a pruritogenic agent. The class given is in vivo, Male Wistar rats. The note with it: rat, pruritogen 5-methoxytryptamine hydrochloride 4 mg/3 mL/kg s.c.; test compound s.c. in aqueous micelle formulation; scratching score over 25 minutes. Here is the method:
The compounds of the invention are evaluated for their activity as antipruritic agents by measuring their ability to inhibit the hind leg scratching behaviour induced in rats by the administration of a known pruritogenic agent. These studies are based on the procedure described by Berendsen and Broekkamp in the European Journal of Pharmacology, 1991, 194, 201. The test is performed as follows: • Male Wistar rats (approximately 150 g body weight) are challenged with a pruritogen by subcutaneous injection of 5-methoxytryptamine hydrochloride (4 mg/3 mL/kg) dissolved in physiological saline into the scruff of the neck. At this dose a constant and quantifiable hindleg scratching response lasting up to 90 minutes is obtained. • The test compound is administered to the test animals by subcutaneous injection in an aqueous micelle formulation. The test compound is prepared in the following manner. […] The compounds can be administered pre- or post-challenge or may be administered at the same time as the pruritogenic challenge. • After the pruritogen challenge has been administered, hindleg scratching is scored for each animal by recording the presence or absence of scratching during each 30 second interval as 1 or 0 scored respectively. […]

On to `CCCCCCN1CC[C@@](C)(c2cccc(OC(=O)NC)c2)[C@H](C)C1` (racemic) [Example 2, (±)-3-(1-Hexyl-trans-3,4-dimethyl-4-piperidinyl)phenyl methylcarbamate], for which the anti-pruritic activity result was “found to display anti-pruritic activity”.
